This passage reports AC50 and EC50 results from ChEMBL document CHEMBL1201862, “PubChem BioAssay data set” (2004).

For one experiment, the target named is Cytochrome P450 2D6 (Homo sapiens, UniProt P10635).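 Further: CYP2D6 member of a cytochrome P450 panel assay.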
The subject of a further experiment is Streptococcus. In words: Group A Streptococcus viability loss, dose response, counter-screen for streptokinase expression inhibitor project, luminescence, BacTiterGlo (AID 1915).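 Further: potency for reduction of bacterial viability or growth.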 Format: functional, organism-based. (A counterscreen serves to expose hits that act by an unwanted route or on another target.)
Experiment [1] concerns Streptococcus sp. 'group A'. In words: growth inhibition of control SK(-) GAS strain, dose response, counter-screen for streptokinase expression inhibitor project, luminescence, kanamycin, BacTiterGlo, confirmation (AID 1900). Format: functional, organism-based.
The target of a further experiment is T1, Streptokinase A (Streptococcus pyogenes serotype M1, UniProt P10520).
T1 sequence (P10520 whole entry): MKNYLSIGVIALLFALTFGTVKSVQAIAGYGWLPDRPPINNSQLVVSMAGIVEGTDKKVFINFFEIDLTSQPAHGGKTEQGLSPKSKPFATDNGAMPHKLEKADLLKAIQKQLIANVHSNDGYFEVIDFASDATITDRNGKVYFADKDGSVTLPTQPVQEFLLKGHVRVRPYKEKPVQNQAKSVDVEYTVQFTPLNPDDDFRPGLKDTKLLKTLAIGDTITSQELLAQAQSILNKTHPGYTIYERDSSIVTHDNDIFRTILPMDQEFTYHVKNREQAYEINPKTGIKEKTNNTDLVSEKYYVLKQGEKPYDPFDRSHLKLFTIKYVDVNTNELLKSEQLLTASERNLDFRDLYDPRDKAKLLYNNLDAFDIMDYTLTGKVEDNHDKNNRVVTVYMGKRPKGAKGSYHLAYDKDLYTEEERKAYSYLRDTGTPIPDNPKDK
The experiment can be described thus: S. pyogenes streptokinase expression inhibitors, potency, dose response, plasminogen activation absorbance, OD405 (AID 1914).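 Further: secreted streptokinase activity via plasminogen activation per viability signal from cell pellet.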 The class given is functional, Streptococcus pyogenes M1 GAS.

For a further experiment, the target named is Cytochrome P450 3A4 (Homo sapiens, UniProt P08684).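 Further: CYP3A4 tested as one member of a cytochrome P450 panel screen.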
The target in a further experiment is T2, Cytochrome P450 1A2 (Homo sapiens, UniProt P05177).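 Further: PubChem cytochrome P450 panel assay, CYP1A2 panel member.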
T2 sequence (P05177 whole entry): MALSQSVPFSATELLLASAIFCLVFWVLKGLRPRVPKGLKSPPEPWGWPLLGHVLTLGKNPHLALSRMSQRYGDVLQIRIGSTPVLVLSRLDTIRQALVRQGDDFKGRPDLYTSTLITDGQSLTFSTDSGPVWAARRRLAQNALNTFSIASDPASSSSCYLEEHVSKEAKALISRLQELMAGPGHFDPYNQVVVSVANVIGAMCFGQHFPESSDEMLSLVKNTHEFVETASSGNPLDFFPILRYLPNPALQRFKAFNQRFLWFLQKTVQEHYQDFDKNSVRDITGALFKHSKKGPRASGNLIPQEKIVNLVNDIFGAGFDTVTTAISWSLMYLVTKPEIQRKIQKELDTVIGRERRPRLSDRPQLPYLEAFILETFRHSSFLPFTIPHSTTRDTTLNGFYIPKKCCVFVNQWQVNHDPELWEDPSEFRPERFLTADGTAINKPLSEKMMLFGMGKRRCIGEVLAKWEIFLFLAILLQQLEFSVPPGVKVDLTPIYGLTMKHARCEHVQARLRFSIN

Experiment [2] has as its target T3, Heat shock factor protein 1 (Mus musculus, UniProt P38532).
T3 sequence (P38532 whole entry): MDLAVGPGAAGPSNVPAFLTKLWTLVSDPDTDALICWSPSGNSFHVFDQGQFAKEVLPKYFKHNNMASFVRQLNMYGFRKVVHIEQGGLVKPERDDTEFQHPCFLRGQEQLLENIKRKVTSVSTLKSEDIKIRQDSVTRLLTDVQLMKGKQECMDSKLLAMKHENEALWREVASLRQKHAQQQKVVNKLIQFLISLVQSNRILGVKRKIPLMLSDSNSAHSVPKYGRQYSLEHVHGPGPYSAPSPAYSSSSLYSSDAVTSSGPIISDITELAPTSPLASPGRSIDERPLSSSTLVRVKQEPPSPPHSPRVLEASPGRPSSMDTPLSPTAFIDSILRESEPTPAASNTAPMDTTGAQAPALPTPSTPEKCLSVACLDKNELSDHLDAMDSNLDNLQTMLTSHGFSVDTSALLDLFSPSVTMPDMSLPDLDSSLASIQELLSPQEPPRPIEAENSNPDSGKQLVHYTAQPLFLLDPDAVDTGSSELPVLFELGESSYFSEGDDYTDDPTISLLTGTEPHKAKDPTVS
The experiment can be described thus: HSF1 potentiators in luciferase reporter cells, confirmation, cell-based, NIH3T3, luminescence, dose retest (AID 435004).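 Further: stress induced by proteasome inhibitor MG132 added 30 min after compound; luciferase reporter driven by HSF1 response element in NIH3T3 cells; actives raise luminescence as potentiators of the MG132 stress response.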 The class given is functional.

Molecules are shown by their SMILES. Activity calls are given as the source filed them. For most assays here, no stated cut-off is given here; in the data, actives have a measured EC50 and inactives only a lower limit.

Cytochrome P450 2D6, sequence (P10635 whole entry): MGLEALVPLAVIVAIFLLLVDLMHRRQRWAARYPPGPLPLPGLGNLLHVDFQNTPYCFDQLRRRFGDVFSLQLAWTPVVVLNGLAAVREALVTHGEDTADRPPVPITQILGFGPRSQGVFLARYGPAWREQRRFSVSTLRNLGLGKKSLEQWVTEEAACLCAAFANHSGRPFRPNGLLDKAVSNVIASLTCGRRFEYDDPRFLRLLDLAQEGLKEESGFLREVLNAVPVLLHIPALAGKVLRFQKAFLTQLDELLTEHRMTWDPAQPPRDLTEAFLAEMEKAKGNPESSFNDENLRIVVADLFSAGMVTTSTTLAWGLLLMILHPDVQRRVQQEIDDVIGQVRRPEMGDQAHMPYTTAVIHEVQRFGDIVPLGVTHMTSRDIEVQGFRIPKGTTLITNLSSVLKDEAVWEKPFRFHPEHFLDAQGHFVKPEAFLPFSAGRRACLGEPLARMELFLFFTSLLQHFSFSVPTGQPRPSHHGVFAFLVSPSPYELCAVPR
Cytochrome P450 3A4, sequence (P08684 whole entry): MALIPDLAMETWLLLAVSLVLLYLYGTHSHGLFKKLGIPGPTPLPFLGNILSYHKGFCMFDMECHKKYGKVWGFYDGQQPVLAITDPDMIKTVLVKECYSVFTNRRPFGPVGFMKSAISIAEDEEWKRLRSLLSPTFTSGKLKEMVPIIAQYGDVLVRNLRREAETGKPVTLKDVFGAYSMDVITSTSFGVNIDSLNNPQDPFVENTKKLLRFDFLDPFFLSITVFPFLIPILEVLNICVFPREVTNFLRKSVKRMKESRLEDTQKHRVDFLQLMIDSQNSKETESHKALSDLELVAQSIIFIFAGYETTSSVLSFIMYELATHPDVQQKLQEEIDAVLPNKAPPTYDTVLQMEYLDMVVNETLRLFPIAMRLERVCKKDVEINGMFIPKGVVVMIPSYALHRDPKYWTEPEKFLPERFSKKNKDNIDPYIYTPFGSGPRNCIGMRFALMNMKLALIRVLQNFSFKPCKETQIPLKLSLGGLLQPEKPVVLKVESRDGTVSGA

What is called AC50 is the concentration giving half of the maximal activity seen. For the compound `CCCCCCCCCCCCC/C=C\[C@@H](O)[C@H](CO)NC(C)=O`, the AC50 on Cytochrome P450 2D6 was 3.98 µM (inconclusive).

The term EC50 denotes the midpoint of the concentration-response curve. For `FC(F)(F)Oc1ccc(N=C(S)Nc2ccc(OC(F)(F)F)cc2)cc1`, the EC50 is 22 µM (active) in the experiment on Streptococcus, 15.8 µM (active) in experiment [1] and > 150 µM (not active) at Streptokinase A.

Consider `Cc1ccc(NS(=O)(=O)c2ccc(C3CCCCC3)cc2)cc1`, for which the EC50 is 7.04 µM (active) with Streptococcus, 4.32 µM (active) in experiment [1] and 4.17 µM (active) at Streptokinase A.

As for `COCC(=O)N1CCC2(CC1)CN(c1ccncc1)C2`, the AC50 on Cytochrome P450 2D6 was 25.1 µM (inconclusive).

Take `O=C(Nc1cccc(F)c1)N1CCCCCC1`: the EC50 (in the experiment with Streptococcus; in experiment [1]; at Streptokinase A) was > 150 µM (not active) in each case.

Regarding `COc1cc(/C=N/Nc2snc(SC)c2C#N)cc(OC)c1OC`, the AC50 at Cytochrome P450 2D6 was 12.6 µM (inconclusive).

For `Cc1cnc(CNc2ncncc2-c2ccccc2Cl)cn1`, the AC50 at Cytochrome P450 3A4 is 0.251 µM (inconclusive); at Cytochrome P450 2D6 it was 25.1 µM (inconclusive).

In the case of `Cc1c(C(=O)NCCC2=CCCCC2)cccc1[N+](=O)[O-]`, the AC50 is 15.8 µM (inconclusive) at Cytochrome P450 1A2, 14.1 µM (inconclusive) at Cytochrome P450 3A4 and 15.8 µM (inconclusive) on Cytochrome P450 2D6.

Turning to `CS(=O)(=O)Nc1cccc(-c2nccc(Nc3ccc(F)cc3)n2)c1`, the AC50 on Cytochrome P450 2D6 is 39.8 µM (inconclusive).

`CCSc1nnc(NC(=O)CSc2nc3c(cc2C#N)CCCC3)s1`: the AC50 was 15.8 µM (inconclusive) at Cytochrome P450 1A2 and 3.55 µM (inconclusive) on Cytochrome P450 2D6.

`COc1cnc(-c2ccccn2)nc1Oc1c(C)cccc1C`: the EC50 with Streptococcus was > 150 µM (not active); in experiment [1] it was 6.39 µM (active); at Streptokinase A it was > 150 µM (not active).

Take `Cc1ccc(NC(=O)c2cccc(OCc3c(C)noc3C)c2)cc1S(=O)(=O)Nc1ccccc1Cl`: the EC50 in the experiment on Streptococcus was 57.1 µM (active); at Streptokinase A, > 150 µM (not active).

With `CC1(C)Cc2c(cnn2-c2ccccc2)C(NC(=O)CCCN2CCCC2=O)C1` (stereo not given), the EC50 (with Streptococcus; in experiment [1]; on Streptokinase A) was > 150 µM (not active) in each case.

With `Cn1ncc2c(Nc3ccc(Cl)c(Cl)c3)ncnc21`, the figures for the EC50 (in the experiment with Streptococcus; in experiment [1]; on Streptokinase A) were 16 µM (active), 7.9 µM (active) and > 150 µM (not active), respectively.

With `COc1ccc(NS(=O)(=O)c2cccc(NC(=O)CCC(=O)c3ccc(Cl)cc3)c2)cc1`, the EC50 in the experiment on Streptococcus was 25.3 µM (active); in experiment [1], 11.2 µM (active); on Streptokinase A it was > 150 µM (not active).

As for `CC(C)(C)NC(=O)CSc1nnc(Cc2ccc3c(c2)OCO3)n1C1CCCCC1`, the AC50 on Cytochrome P450 2D6 is 2.82 µM (inconclusive).

On to `CN1CCN(c2ncc3nc(-c4ccccc4)c(=O)n(CCC#N)c3n2)CC1`, for which the AC50 at Cytochrome P450 1A2 was 20 µM (inconclusive); on Cytochrome P450 2D6, 25.1 µM (inconclusive).

On to `O=C(CCc1nnc(CCCCc2ccccc2)o1)NCCN1CCCCC1=O`, for which the EC50 in experiment [2] was > 260 µM (inactive).

With `O=C(c1ccccc1)[C@H](Nc1ccc2ccccc2c1)c1ccccc1`, the AC50 at Cytochrome P450 2D6 is 1.58 µM (inconclusive).

As for `CCCCOc1ccc(/C=C/C(=O)NCCc2nc3ccccc3[nH]2)cc1`, the AC50 on Cytochrome P450 2D6 is 14.1 µM (inconclusive).

With `CN(C)C(=O)c1ccc(-c2nc(NCc3cccs3)c3ccccc3n2)cc1`, on Cytochrome P450 2D6, the AC50 is 25.1 µM (inconclusive).

On to `CCc1cccc(CC)c1NC(=O)COC(=O)CC1c2ccccc2CCN1S(=O)(=O)c1ccc(F)cc1` (stereo not given), for which, in experiment [2], the EC50 was > 260 µM (inactive).

For `O=C(NNc1c(Cl)cccc1Cl)C1CCC1`, the EC50 in experiment [2] is > 260 µM (inactive).

As for `CCN(CCCNC(=O)CNC(=O)c1nn(-c2ccc(OC)cc2OC)c(=O)c2ccccc12)c1cccc(C)c1`, in experiment [2], the EC50 is > 260 µM (inactive).

Take `COC(=O)C(NNc1ccccc1C)(NC(=O)c1ccc(F)cc1)C(F)(F)F` (stereo not given): the EC50 in experiment [2] is > 260 µM (inactive).
